Assay results from patent publication US20040147452A1, “Non-amphoteric glutathione derivative compositions for tropical application” (priority 2002, published 2004).
Read-outs that look alike come from different tables or passages of the source.

Tests used:
[1] = tested on: X-linked ichthyosis with severe dry skin; conditions: 3% cream under test chambers on forearm, subject
Method: A solution containing a non-amphoteric glutathione derivative was prepared. N-Acetyl-glutathione diethyl ester 3 g was dissolved in warm propylene glycol 17 ml, and the solution was mixed with 80 g oil-in-water cream base or hydrophilic ointment. The cream contained 3% non-amphoteric N-acetyl-glutathione diethyl ester.
A subject who had X-linked ichthyosis with severe dry skin participated in this study. Test spots were I cm square sites on extensor surface of forearm, a grid pattern formed by Hayes Test Chambers on Hayes adhesive strips. Each test chamber contained a square piece of filter paper which was fully saturated with the non-amphoteric glutathione derivative cream. Test chambers were impressed on the skin to leave outlines which were marked with SANFORD® SHARPIE® permanent marker. Sites were re-marked at each successive application of the test cream. Chambers were removed twice weekly, and replaced with a new adhesive strip of chambers with filter paper saturated with the test cream. The test was carried out for two weeks.

[2] = tested on: chronic nummular eczema; conditions: 10% cream of Preparation Example 2, topically twice daily for two days, subject, right lower leg
Method: A solution containing a non-amphoteric glutathione derivative was prepared. […] The solution was mixed uniformly with 70 g cream base.

[3] = tested on: forearm skin; conditions: 5% solution with L-arginine; for increase in skin thickness: forearm
Method: The combined thickness of two whole-skin layers including thickness of the two hinge leaves was measured with micrometer calipers. The thickness of the two hinge leaves was subtracted to determine the actual thickness of two whole-skin layers. Triplicate measurements on treated sites were done and an average number was used for calculation of the skin thickness.
The solution thus prepared contained 5% non-amphoteric glutathione derivative. For comparative study, glutathione 5 g and L-arginine 1 g were dissolved in 94 ml solution prepared from water 70 parts and propylene glycol 30 parts. The solution thus prepared contained 5% amphoteric glutathione.
A subject, applied topically twice daily the above 5% amphoteric glutathione solution to their left forearm and 5% non-amphoteric glutathione derivative to their right forearm for four weeks.
A solution containing a non-amphoteric glutathione derivative was prepared. […] The solution thus prepared contained 5% non-amphoteric glutathione derivative.
A subject, applied topically twice daily the above 5% non-amphoteric glutathione derivative to their right forearm for eight weeks.
A subject, applied topically twice daily the above 5% non-amphoteric glutathione derivative to their left forearm for eight weeks.

[4] = topically twice daily for four weeks, subject

SMILES | clinical evaluation, improvement of rough and scaly skin ([1]; after one week) [%] | appearance of severe dry skin ([1]; after two weeks) | areas of the eczematous lesions reduced [2] [%] | appearance of treated forearm skin ([3]; topically twice daily for eight weeks, one subject per example) | increase in skin thickness [3, 4] | appearance of treated forearm skin [3, 4]
CCOC(=O)CNC(=O)[C@H](CS)NC(=O)CC[C@H](NC(C)=O)C(=O)OCC [N-acetyl-glutathione diethyl ester, N-Acetyl-glutathione diethyl ester] | 90 | smooth and normal-looking |  |  |  | 
COC(=O)CNC(=O)[C@H](CS)NC(=O)CC[C@H](N)C(=O)OC.Cl [glutathione dimethyl ester, Glutathione dimethyl ester hydrochloride] |  |  | 75 | more firm, smooth, plump and minimally wrinkled when lifted | 10% | more firm, smooth, plump and minimally wrinkled when lifted
N[C@@H](CCC(=O)N[C@@H](CS)C(=O)NCC(=O)O)C(=O)O [glutathione] |  |  |  |  | no change | still loose, relatively thin and wrinkled when lifted
